Key:
[1] = target: T1, Solute carrier family 22 member 6 (Mus musculus, UniProt Q8VC69); experiment: Inhibition of mouse OAT1 expressed in CHO cells assessed as inhibition of fluorescein uptake at 500 uM over 20 mins relative to untreated-control; format: ADME, cell-based
T1 sequence (Q8VC69 whole entry): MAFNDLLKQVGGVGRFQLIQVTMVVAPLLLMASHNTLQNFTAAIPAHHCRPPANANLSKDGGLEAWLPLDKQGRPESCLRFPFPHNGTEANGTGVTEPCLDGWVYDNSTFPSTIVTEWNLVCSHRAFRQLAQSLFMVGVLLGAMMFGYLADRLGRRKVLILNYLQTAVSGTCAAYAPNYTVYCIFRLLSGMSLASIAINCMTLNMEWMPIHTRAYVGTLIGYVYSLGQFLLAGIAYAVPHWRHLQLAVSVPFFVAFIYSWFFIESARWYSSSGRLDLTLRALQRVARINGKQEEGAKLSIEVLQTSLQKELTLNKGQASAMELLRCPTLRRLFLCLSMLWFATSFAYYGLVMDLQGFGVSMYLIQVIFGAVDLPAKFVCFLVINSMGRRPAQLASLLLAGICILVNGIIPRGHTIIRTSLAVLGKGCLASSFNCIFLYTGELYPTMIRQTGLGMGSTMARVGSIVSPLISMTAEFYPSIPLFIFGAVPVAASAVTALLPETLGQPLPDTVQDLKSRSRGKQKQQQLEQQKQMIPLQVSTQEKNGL

[2] = target: T2, Organic anion transporter 3 (Mus musculus, UniProt O88909); experiment: Inhibition of mouse OAT3 expressed in CHO cells assessed as inhibition of fluorescein uptake at 500 uM over 20 mins relative to untreated-control; format: ADME, cell-based
T2 sequence (O88909 whole entry): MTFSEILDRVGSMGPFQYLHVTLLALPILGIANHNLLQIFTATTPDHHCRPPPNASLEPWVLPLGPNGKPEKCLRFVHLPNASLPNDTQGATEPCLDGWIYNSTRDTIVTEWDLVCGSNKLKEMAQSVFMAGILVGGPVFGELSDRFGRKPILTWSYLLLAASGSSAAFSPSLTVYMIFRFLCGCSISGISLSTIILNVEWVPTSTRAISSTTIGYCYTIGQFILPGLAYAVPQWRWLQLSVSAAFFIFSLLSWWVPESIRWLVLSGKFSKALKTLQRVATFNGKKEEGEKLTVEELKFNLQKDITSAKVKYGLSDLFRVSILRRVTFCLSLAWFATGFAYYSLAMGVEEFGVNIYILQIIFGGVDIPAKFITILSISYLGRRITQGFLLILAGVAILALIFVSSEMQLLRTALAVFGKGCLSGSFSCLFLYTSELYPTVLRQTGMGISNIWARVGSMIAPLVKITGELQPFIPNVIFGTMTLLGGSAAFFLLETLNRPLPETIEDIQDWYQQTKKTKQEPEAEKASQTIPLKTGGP

[3] = target: T3, Organic anion transporter 3 (Homo sapiens, UniProt Q8TCC7); experiment: (§1) Inhibition of human OAT3 expressed in CHO cells assessed as inhibition of fluorescein uptake at 500 uM over 20 mins relative to untreated-control; format: ADME, cell-based; details: cho, 20 min, 500 µM
T3 sequence (Q8TCC7 whole entry): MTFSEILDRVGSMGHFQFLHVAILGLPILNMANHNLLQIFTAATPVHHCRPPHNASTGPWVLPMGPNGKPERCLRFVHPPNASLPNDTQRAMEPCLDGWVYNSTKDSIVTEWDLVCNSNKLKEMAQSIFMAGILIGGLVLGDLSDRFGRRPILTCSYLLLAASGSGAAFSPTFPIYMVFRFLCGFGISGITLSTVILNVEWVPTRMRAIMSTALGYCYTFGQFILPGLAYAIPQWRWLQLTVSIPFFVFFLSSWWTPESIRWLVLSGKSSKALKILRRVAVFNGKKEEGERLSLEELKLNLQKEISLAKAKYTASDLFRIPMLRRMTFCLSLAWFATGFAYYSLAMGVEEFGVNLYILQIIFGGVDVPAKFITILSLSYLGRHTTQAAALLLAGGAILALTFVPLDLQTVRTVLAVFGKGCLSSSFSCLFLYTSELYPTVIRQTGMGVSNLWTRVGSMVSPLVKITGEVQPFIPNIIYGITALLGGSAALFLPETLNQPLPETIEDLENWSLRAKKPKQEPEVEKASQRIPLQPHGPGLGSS

[4] = target: T4, OAT3 (Homo sapiens, UniProt Q8TCC7); experiment: Inhibition of human OAT3 expressed in CHO cells assessed as inhibition of fluorescein uptake over 20 mins relative to untreated-control; format: ADME, cell-based; details: CHO cells expressing human OAT3, probe fluorescein
T4 sequence (Q8TCC7 whole entry): T3 sequence (Q8TCC7 whole entry)

[5] = target: T3, Organic anion transporter 3; experiment: Inhibition of human OAT3 using estrone-3-sulfate as substrate; format: ADME
[6] = target: T2, Organic anion transporter 3; experiment: Inhibition of mouse OAT3 expressed in CHO cells assessed as inhibition of fluorescein uptake at 1 mM over 20 mins relative to untreated-control; format: ADME, cell-based; details: 1000 µM
[7] = target: T4, OAT3; experiment: as §1; format: ADME, cell-based; details: CHO cells expressing human OAT3, probe fluorescein
[8] = target: T2, Organic anion transporter 3; experiment: Inhibition of mouse OAT3 expressed in CHO cells assessed as inhibition of fluorescein uptake over 20 mins; format: ADME, cell-based
[9] = target: T3, Organic anion transporter 3; experiment: Inhibition of human OAT3 expressed in CHO cells assessed as inhibition of fluorescein uptake at 1 mM over 20 mins relative to untreated-control; format: ADME, cell-based; details: 1000 µM
[10] = target: T2, Organic anion transporter 3; experiment: Inhibition of mouse OAT3 expressed in CHO cells assessed as inhibition of fluorescein uptake over 20 mins by Michaelis-Menten method; format: ADME, cell-based
[11] = target: T3, Organic anion transporter 3; experiment: Inhibition of human OAT3 expressed in CHO cells assessed as inhibition of fluorescein uptake over 20 mins by Michaelis-Menten method; format: ADME, cell-based
[12] = target: T2, Organic anion transporter 3; experiment: Inhibition of mouse OAT3 expressed in CHO cells assessed as inhibition of fluorescein uptake at 1 mM after 10 mins; format: ADME, cell-based; details: 1000 µM

Structure (SMILES)	inhibition (INH) [1]	inhibition (INH) [2]	inhibition (INH) [3]	IC50 [8]	other results
CC1(C)S[C@@H]2[C@H](N)C(=O)N2[C@H]1C(=O)O	Not Active	Not Active	Not Active		
CC1(C)S[C@@H]2[C@H](NC(=O)[C@H](N)c3ccccc3)C(=O)N2[C@H]1C(=O)O [AMPICILLIN]	Not Active	Not Active	Not Active		
CC1(C)S[C@@H]2[C@H](NC(=O)[C@H](NC(=O)N3CCNC3=O)c3ccccc3)C(=O)N2[C@H]1C(=O)O [AZLOCILLIN]	Not Active	Not Active	Not Active		
C[C@H]1[C@H](NC(=O)/C(=N\OC(C)(C)C(=O)O)c2csc(N)n2)C(=O)N1S(=O)(=O)O [AZTREONAM]	Not Active	Not Active	Not Active		
CC1(C)S[C@@H]2[C@H](NC(=O)C(C(=O)O)c3ccccc3)C(=O)N2[C@H]1C(=O)O (some centres not stated) [CARBENICILLIN]		Not Active	Not Active		inhibition at 20 min [4]: 70%
N[C@@H](C(=O)N[C@@H]1C(=O)N2C(C(=O)O)=C(Cl)CS[C@H]12)c1ccccc1 [CEFACLOR ANHYDROUS]	Not Active	Not Active	Active		IC50 [5]: 120 µM
CC1=C(C(=O)O)N2C(=O)[C@@H](NC(=O)[C@H](N)c3ccc(O)cc3)[C@H]2SC1 [CEFADROXIL]		Not Active			inhibition (INH) [6]: Not Active; inhibition at 20 min, 500 µM [7]: 20%
CO[C@@]1(NC(=O)CSCC#N)C(=O)N2C(C(=O)O)=C(CSc3nnnn3C)CS[C@@H]21 [CEFMETAZOLE]	Active	Not Active	Not Active	105 µM	
CCN1CCN(C(=O)N[C@@H](C(=O)N[C@@H]2C(=O)N3C(C(=O)O)=C(CSc4nnnn4C)CS[C@H]23)c2ccc(O)cc2)C(=O)C1=O [CEFOPERAZONE]		Not Active	Not Active		
CO/N=C(\C(=O)N[C@@H]1C(=O)N2C(C(=O)O)=C(COC(C)=O)CS[C@H]12)c1csc(N)n1 [CEFOTAXIME]		Not Active	Not Active		
CO[C@@]1(NC(=O)Cc2cccs2)C(=O)N2C(C(=O)O)=C(COC(N)=O)CS[C@@H]21 [CEFOXITIN]	Not Active	Not Active	Not Active	57 µM	
NC(=O)c1cc[n+](CC2=C(C(=O)O)N3C(=O)[C@@H](NC(=O)[C@@H](c4ccccc4)S(=O)(=O)[O-])[C@H]3SC2)cc1 [CEFSULODIN]	Not Active	Not Active	Not Active		
CC(C)(O/N=C(\C(=O)N[C@@H]1C(=O)N2C(C(=O)[O-])=C(C[n+]3ccccc3)CS[C@H]12)c1csc(N)n1)C(=O)O [CEFTAZIDIME]	Not Active	Not Active	Not Active		
Cc1onc(-c2ccccc2)c1C(=O)N[C@@H]1C(=O)N2[C@@H]1SC(C)(C)[C@@H]2C(=O)O [OXACILLIN]	Not Active	Active	Active	35 µM	

The next lines start with results.

inhibition (INH) [1]	inhibition (INH) [2]	inhibition (INH) [3]	IC50 [8]	Structure (SMILES)	other results
Not Active	Not Active	Not Active	35.7 µM	CO/N=C(\C(=O)N[C@@H]1C(=O)N2C(C(=O)O)=C(CSC(=O)c3ccco3)CS[C@H]12)c1csc(N)n1 [CEFTIOFUR]	
Not Active	Not Active	Not Active		CO/N=C(\C(=O)N[C@@H]1C(=O)N2C(C(=O)O)=C(COC(N)=O)CS[C@H]12)c1ccco1 [CEFUROXIME]	
Not Active		Not Active		CC1=C(C(=O)O)N2C(=O)[C@@H](NC(=O)[C@H](N)c3ccccc3)[C@H]2SC1 [CEPHALEXIN ANHYDROUS]	
	Not Active	Not Active	33.3 µM	CC(=O)OCC1=C(C(=O)O)N2C(=O)[C@@H](NC(=O)Cc3cccs3)[C@H]2SC1 [CEPHALOTHIN]	
Not Active	Not Active	Not Active	30.9 µM	Cc1onc(-c2ccccc2Cl)c1C(=O)N[C@@H]1C(=O)N2[C@@H]1SC(C)(C)[C@@H]2C(=O)O [CLOXACILLIN]	
Active	Active	Active	16.6 µM	Cc1onc(-c2c(Cl)cccc2Cl)c1C(=O)N[C@@H]1C(=O)N2[C@@H]1SC(C)(C)[C@@H]2C(=O)O [DICLOXACILLIN]	
Not Active	Not Active	Not Active	116 µM	COc1cccc(OC)c1C(=O)N[C@@H]1C(=O)N2[C@@H]1SC(C)(C)[C@@H]2C(=O)O [METHICILLIN]	
Not Active	Not Active	Not Active	34.9 µM	CCOc1ccc2ccccc2c1C(=O)N[C@@H]1C(=O)N2[C@@H]1SC(C)(C)[C@@H]2C(=O)O [NAFCILLIN]	
		Active	89.4 µM	CC1(C)S[C@@H]2[C@H](NC(=O)Cc3ccccc3)C(=O)N2[C@H]1C(=O)O [PENICILLIN G]	
Not Active	Not Active	Not Active	48.6 µM	CC1(C)S[C@@H]2[C@H](NC(=O)COc3ccccc3)C(=O)N2[C@H]1C(=O)O [PENICILLIN V]	
Active	Not Active	Not Active		CCN1CCN(C(=O)N[C@@H](C(=O)N[C@@H]2C(=O)N3[C@@H]2SC(C)(C)[C@@H]3C(=O)O)c2ccccc2)C(=O)C1=O [PIPERACILLIN]	
	Not Active	Not Active	3.02 µM	CCCN(CCC)S(=O)(=O)c1ccc(C(=O)O)cc1 [PROBENECID]	inhibition (INH) [6]: Active; inhibition (INH) [9]: Active; inhibition (INH) [10]: Dose-dependent effect; inhibition (INH) [11]: Dose-dependent effect; inhibition (INH) [12]: Active
	Not Active	Not Active	233 µM	CC1(C)S[C@@H]2[C@H](NC(=O)[C@H](C(=O)O)c3ccsc3)C(=O)N2[C@H]1C(=O)O [TICARCILLIN]	

From ChEMBL document CHEMBL3525990, “Organic anion transporter 3 interacts selectively with lipophilic β-lactam antibiotics” (Drug Metab Dispos, 2013)
